Data on 4 compounds can be found in US10662195B2, “Protein kinase conjugates and inhibitors” (Celgene Avilomics Research, Inc., priority 2009, dated 2020).

In test [1] the test system is CKIT. Briefly: cKIT washout assay in GIST882 cells (C-kit phosphorylation, western blot). In kind it is cell-based. The conditions noted are these: 1 uM for 90 minutes, then washed free of compound. The method, then: GIST882 cells (See, Bauer et al., Cancer Research, 66(18):9153-9161 (2006)) were seeded in a 6 well plate at a density of 8×10^5 cells/well in complete media. The next day cells were treated with 1 uM compound diluted in complete media for 90 minutes. After 90 minutes, the media was removed and cells were washed with compound-free media. Cells were washed every 2 hours and resuspended in fresh compound-free media. Cells were collected at specified time points, lysed in Cell Extraction Buffer (Invitrogen FNN0011) supplemented with Roche complete protease inhibitor tablets (Roche 11697498001) and phosphatase inhibitors (Roche 04 906 837 001) and lysates were sheared by passing through a 28.5 gauge syringe 10 times each. Protein concentrations were measured and 10 ug total protein lysate was loaded in each lane. C-kit phosphorylation was assayed by western blot with pTyr (4G10) antibody and total kit antibody from Cell Signaling Technology.
Sorafenib and XVIII-11 were tested for cellular activity in a GIST882 cell line at 1 micromolar. The results are depicted in FIGS. 2a and 2b where it is shown that XVIII-11 maintained c-KIT enzyme inhibition in […] cells after “washout” for at least 8 hours. […] In order to understand whether there was a prolonged inhibition with the irreversible inhibitor the cells were washed free of compound. For the reversible inhibitor, Sorafenib, the inhibitory activity of cKIT and downstream signaling was overcome whereas the irreversible inhibition of XVIII-11 persisted for at least 8 hours.

The target of the next test is KDR (Homo sapiens, UniProt P35968). Briefly: KDR Omnia continuous-read kinase assay. In kind it is biochemical. Set-up: purchased Invitrogen or BPS Bioscience PV3660 or 40301. The method, then: (§1) A. KDR and FLT-3 Omnia Assay for Potency Assessment:
(§2) The protocol below describes a continuous-read kinase assay to measure inherent potency of Avila Therapeutics' compounds against active KDR and FLT-3 enzymes. The assay was performed substantially as described by the vendor (Invitrogen, Carlsbad, Calif.; http://www.invitrogen.com/content.cfm?pageid=11338.)
Briefly, 10× stocks of KDR from Invitrogen or BPS Bioscience (PV3660 or 40301) and FLT-3 (PV3182) enzymes, 1.13×ATP (AS001A) and Y9-Sox or Y12-Sox peptide substrates (KCZ1001) were prepared in 1× kinase reaction buffer consisting of 20 mM Tris, pH 7.5, 5 mM MgCl2, 1 mM EGTA, 5 mM β-glycerophosphate, 5% glycerol (10× stock, KB002A) and 0.2 mM DTT (DS001A). 5 μL of enzyme were pre-incubated in a Corning (#3574) 384-well, white, non-binding surface microtiter plate (Corning, N.Y.) for 30 min at 27° C. with a 0.5 μL volume of 50% DMSO and serially diluted compounds prepared in 50% DMSO. Kinase reactions were started with the addition of 45 μL of the ATP/Y9 or Y5-Sox peptide substrate mix and monitored every 30-90 seconds for 60 minutes at λex360/λem485 in a Synergy^4 plate reader from BioTek (Winooski, Vt.). At the conclusion of each assay, progress curves from each well were examined for linear reaction kinetics and fit statistics (R^2, 95% confidence interval, absolute sum of squares). Initial velocity (0 minutes to 20+ minutes) from each reaction was determined from the slope of a plot of relative fluorescence units vs time (minutes) and then plotted against inhibitor concentration to estimate IC50 from Log [Inhibitor] vs Response, Variable Slope model in GraphPad Prism from GraphPad Software (San Diego, Calif.). […]
(§3) The reported IC50_APP and IC50 values are in units of nM.

Another test addresses CKIT D816V (Homo sapiens, UniProt P10721, D816V). Nature of the test: c-Kit mutant Omnia kinase assay. In kind it is biochemical. The conditions noted are these: read-out: IC50_APP CKIT D816V.
The target of another test is T1, FLT3 (Homo sapiens, UniProt P36888).
T1 construct: purchased PV3182
T1 sequence (P36888 27-993): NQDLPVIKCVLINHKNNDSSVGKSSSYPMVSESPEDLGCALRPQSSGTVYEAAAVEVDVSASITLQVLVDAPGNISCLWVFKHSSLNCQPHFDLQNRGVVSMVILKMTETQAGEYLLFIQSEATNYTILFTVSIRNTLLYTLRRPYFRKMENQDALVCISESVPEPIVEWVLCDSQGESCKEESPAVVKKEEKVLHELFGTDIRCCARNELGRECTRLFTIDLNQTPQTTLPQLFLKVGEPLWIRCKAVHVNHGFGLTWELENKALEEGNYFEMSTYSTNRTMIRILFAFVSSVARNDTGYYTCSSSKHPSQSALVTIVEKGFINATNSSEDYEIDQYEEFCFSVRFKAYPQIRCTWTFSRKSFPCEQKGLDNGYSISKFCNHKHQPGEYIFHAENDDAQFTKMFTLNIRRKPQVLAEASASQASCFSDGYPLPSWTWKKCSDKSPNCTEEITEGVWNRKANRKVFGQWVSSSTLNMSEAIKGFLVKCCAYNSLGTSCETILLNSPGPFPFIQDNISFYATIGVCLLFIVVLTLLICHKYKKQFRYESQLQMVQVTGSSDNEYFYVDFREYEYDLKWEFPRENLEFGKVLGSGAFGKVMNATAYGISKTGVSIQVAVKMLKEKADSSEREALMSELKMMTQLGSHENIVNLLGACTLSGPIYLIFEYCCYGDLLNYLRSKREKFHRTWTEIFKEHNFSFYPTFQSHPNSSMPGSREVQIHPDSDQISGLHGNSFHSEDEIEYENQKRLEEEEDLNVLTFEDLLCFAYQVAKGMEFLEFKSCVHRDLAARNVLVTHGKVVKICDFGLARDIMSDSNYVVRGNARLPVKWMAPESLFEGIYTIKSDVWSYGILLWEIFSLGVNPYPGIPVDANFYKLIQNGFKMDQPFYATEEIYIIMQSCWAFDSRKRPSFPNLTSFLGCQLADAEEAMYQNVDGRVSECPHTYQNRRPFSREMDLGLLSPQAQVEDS
Briefly: FLT-3 Omnia continuous-read kinase assay. In kind it is biochemical. The method, then: as §1, §2
Briefly, 10× stocks of KDR from Invitrogen or BPS Bioscience (PV3660 or 40301) and FLT-3 (PV3182) enzymes, 1.13×ATP (AS001A) and Y9-Sox or Y12-Sox peptide substrates (KCZ1001) were prepared in 1× kinase reaction buffer consisting of 20 mM Tris, pH 7.5, 5 mM MgCl2, 1 mM EGTA, 5 mM β-glycerophosphate, 5% glycerol (10× stock, KB002A) and 0.2 mM DTT (DS001A). 5 μL of enzyme were pre-incubated in a Corning (#3574) 384-well, white, non-binding surface microtiter plate (Corning, N.Y.) for 30 min at 27° C. with a 0.5 μL volume of 50% DMSO and serially diluted compounds prepared in 50% DMSO. Kinase reactions were started with the addition of 45 μL of the ATP/Y9 or Y5-Sox peptide substrate mix and monitored every 30-90 seconds for 60 minutes at λex360/λem485 in a Synergy^4 plate reader from BioTek (Winooski, Vt.). At the conclusion of each assay, progress curves from each well were examined for linear reaction kinetics and fit statistics (R^2, 95% confidence interval, absolute sum of squares). Initial velocity (0 minutes to 20+ minutes) from each reaction was determined from the slope of a plot of relative fluorescence units vs time (minutes) and then plotted against inhibitor concentration to estimate IC50 from Log [Inhibitor] vs Response, Variable Slope model in GraphPad Prism from GraphPad Software (San Diego, Calif.).
[FLT-3]=15 nM, [ATP]=500 μM and [Y5-Sox peptide]=10 μM (ATP KMapp=470 μM)
as §3

The next test deals with T2, PDGFRA (Homo sapiens, UniProt P16234).
T2 construct: purchased PV3811
T2 sequence (P16234 24-1089): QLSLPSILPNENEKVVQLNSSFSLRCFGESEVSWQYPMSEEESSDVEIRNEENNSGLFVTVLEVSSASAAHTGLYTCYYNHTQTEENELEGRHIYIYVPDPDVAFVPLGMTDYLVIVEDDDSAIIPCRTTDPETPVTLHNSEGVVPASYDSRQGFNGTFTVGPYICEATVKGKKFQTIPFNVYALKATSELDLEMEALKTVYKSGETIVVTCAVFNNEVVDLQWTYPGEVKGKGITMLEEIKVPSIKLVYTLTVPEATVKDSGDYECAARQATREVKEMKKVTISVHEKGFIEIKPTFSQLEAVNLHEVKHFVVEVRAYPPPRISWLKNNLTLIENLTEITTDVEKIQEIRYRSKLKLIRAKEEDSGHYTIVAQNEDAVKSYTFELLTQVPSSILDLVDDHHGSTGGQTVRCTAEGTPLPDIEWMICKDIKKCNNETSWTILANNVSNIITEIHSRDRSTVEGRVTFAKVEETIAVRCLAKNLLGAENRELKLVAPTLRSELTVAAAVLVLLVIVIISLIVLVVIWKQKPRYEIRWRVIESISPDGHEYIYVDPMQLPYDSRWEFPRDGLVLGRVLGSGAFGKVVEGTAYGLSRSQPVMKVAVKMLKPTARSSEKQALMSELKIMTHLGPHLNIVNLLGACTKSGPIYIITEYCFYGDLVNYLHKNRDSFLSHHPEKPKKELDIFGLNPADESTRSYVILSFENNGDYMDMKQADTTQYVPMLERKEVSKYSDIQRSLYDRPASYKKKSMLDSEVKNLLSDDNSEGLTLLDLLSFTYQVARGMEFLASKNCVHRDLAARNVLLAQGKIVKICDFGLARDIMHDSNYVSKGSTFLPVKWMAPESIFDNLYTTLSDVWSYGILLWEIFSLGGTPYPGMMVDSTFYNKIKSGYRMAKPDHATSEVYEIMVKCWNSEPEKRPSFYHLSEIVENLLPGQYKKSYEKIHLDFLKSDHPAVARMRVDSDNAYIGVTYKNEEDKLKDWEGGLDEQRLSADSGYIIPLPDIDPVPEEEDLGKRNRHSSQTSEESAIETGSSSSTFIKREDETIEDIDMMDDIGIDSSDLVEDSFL
Nature of the test: Assay for PDGFRa (Omnia). In kind it is biochemical. The method, then: Briefly, 10× stock of PDGFRα (PV3811) enzyme, 1.13×ATP (AS001A) and Y12-Sox peptide substrates (KCZ1001) was prepared in 1× kinase reaction buffer consisting of 20 mM Tris, pH 7.5, 5 mM MgCl2, 1 mM EGTA, 5 mM β-glycerophosphate, 5% glycerol (10× stock, KB002A) and 0.2 mM DTT (DS001A). 5 μL of enzyme were pre-incubated in a Corning (#3574) 384-well, white, non-binding surface microtiter plate (Corning, N.Y.) for 30 min at 27° C. with a 0.5 μL volume of 50% DMSO and serially diluted compounds prepared in 50% DMSO. Kinase reactions were started with the addition of 45 μL of the ATP/Y9 or Y12-Sox peptide substrate mix and monitored every […] for 60 minutes at λex360/λem485 in a Synergy^4 plate reader from BioTek (Winooski, Vt.). At the conclusion of each assay, progress curves from each well were examined for linear reaction kinetics and fit statistics (R2, 95% confidence interval, absolute sum of squares). Initial velocity (0 minutes to 20+ minutes) from each reaction was determined from the slope of a plot of relative fluorescence units vs time (minutes) and then plotted against inhibitor concentration to estimate IC50 from log [Inhibitor] vs Response, Variable Slope model in GraphPad Prism from GraphPad Software (San Diego, Calif.).
[PDGFRα]=2-5 nM, [ATP]=60 μM and [Y9-Sox peptide]=10 μM (ATP KMapp=61 μM)
as §3

Test [2] deals with CKIT (Homo sapiens, UniProt P10721). Nature of the test: c-Kit Omnia kinase assay. In kind it is biochemical. The following applies: reversible reference compounds; read-out: IC50 CKIT.
Chain of CKIT (Homo sapiens, UniProt P10721) (P10721 26-976): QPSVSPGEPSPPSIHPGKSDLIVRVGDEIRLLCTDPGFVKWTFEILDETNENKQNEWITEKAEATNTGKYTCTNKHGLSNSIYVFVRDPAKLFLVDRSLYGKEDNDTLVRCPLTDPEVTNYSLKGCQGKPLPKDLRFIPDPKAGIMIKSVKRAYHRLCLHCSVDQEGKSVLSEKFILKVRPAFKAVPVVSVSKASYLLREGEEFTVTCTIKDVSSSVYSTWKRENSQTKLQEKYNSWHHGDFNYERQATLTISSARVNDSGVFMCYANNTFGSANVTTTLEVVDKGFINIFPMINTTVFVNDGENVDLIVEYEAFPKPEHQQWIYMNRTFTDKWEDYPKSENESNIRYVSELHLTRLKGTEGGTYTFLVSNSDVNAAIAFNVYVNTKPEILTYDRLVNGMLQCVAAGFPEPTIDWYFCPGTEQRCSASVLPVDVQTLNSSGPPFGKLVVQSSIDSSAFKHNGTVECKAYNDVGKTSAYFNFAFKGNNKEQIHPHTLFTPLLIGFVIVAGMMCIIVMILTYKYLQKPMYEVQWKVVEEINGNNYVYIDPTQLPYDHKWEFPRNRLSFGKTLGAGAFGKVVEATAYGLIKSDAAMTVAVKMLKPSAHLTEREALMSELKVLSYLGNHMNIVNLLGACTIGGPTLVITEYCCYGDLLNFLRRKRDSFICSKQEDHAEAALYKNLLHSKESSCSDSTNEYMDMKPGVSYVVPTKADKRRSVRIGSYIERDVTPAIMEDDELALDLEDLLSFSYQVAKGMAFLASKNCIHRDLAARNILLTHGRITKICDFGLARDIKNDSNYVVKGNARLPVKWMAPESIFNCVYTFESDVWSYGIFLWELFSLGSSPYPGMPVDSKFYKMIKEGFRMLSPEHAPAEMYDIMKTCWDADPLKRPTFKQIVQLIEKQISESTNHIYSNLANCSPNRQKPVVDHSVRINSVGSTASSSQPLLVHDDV
Setting [3] is: 30 min pre-incubation, read-out: IC50_APP KDR.
The mark [4] stands for this setting: 30 min pre-incubation, [ATP]=500 μM, read-out: IC50_APP FLT3.
Setting [5] is: 30 min pre-incubation, [ATP]=60 μM, read-out: IC50_APP PDGFRA.

Like-named read-outs stand apart in the source and are kept apart here.

Chain of KDR (P35968 20-1356): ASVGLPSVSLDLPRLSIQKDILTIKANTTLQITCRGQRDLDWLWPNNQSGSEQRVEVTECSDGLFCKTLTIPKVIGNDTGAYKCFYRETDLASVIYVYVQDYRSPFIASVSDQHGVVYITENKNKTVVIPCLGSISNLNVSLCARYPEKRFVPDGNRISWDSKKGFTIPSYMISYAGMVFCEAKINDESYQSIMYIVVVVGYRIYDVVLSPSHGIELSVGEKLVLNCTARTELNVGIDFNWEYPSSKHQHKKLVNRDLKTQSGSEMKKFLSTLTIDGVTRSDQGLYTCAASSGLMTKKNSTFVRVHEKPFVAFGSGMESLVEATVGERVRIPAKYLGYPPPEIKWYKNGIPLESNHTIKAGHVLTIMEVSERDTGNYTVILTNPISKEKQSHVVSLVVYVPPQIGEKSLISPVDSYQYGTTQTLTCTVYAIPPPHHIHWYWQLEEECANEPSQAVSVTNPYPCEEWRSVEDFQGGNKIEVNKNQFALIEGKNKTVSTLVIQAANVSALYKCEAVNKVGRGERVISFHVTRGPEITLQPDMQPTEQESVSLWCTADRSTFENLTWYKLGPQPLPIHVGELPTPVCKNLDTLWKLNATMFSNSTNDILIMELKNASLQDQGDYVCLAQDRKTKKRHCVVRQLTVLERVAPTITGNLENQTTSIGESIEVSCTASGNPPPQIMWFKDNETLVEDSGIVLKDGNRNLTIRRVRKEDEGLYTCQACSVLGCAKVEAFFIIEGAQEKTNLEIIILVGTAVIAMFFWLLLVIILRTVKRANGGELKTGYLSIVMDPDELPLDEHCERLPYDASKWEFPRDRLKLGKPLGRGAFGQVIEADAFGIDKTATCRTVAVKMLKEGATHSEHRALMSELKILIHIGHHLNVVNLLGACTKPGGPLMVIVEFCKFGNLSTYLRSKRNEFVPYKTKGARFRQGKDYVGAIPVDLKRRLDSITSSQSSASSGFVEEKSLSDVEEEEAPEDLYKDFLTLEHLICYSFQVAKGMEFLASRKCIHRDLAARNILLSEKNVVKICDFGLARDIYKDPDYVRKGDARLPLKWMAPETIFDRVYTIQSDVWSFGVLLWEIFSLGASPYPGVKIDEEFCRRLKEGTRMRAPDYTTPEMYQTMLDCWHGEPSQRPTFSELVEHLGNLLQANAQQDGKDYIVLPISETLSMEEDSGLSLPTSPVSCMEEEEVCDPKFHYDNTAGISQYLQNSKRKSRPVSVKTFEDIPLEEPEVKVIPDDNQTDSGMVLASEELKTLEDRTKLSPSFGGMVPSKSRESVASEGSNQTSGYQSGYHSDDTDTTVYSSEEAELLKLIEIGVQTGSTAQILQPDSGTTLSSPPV
Chain of CKIT D816V (P10721 26-976 D816V): as the sequence (P10721 26-976) above, with D791V counted along it

`C=CC(=O)Nc1ccc(NC(=O)Nc2ccc(Oc3ccnc(C(=O)NC)c3)cc2)cc1C(F)(F)F` [XVIII-11, 4-(4-(3-(4-Acrylamido-3-(trifluoromethyl)phenyl)ureido)phenoxy)-N-methylpicolinamide]: in the test with CKIT [1], the “duration of c-KIT inhibition after washout” value is reported as “at least 8 hours”. The IC50 on KDR (setting [3]) was found to be 26.9 nM; at CKIT D816V, 3.42 nM; at FLT3 (setting [4]), 1.99 nM.

`CNC(=O)c1cc(Oc2ccc(NC(=O)Nc3ccc(NC(=O)CCl)c(C(F)(F)F)c3)cc2)ccn1` [XVIII-13, 4-(4-(3-(4-(2-Chloroacetamido)-3-(trifluoromethyl)phenyl)ureido)phenoxy)-N-methylpicolinamide]: the figures for the IC50 on KDR (setting [3]), on PDGFRA (setting [5]) and on FLT3 (setting [4]) were 0.95 nM, 0.508 nM and 0.508 nM, respectively.

For the compound `CCC(=O)Nc1ccc(NC(=O)Nc2ccc(Oc3ccnc(C(=O)NC)c3)cc2)cc1C(F)(F)F` [Reversible Reference Compound 3, 4-(4-(3-(4-(Propionamido)-3-(trifluoromethyl)phenyl)ureido)phenoxy)-N-methylpicolinamide, reference compound], the IC50 stood at 16.3 nM on CKIT [2]; 39.4 nM at KDR (reversible reference compounds, read-out: IC50 KDR); 4.15 nM on PDGFRA (reversible reference compounds, read-out: IC50 PDGFRA); 0.461 nM at FLT3 (reversible reference compounds, read-out: IC50 FLT3).

Turning to `CNC(=O)c1cc(Oc2ccc(NC(=O)Nc3ccc(NC(=O)C(C)Cl)c(C(F)(F)F)c3)cc2)ccn1` (centres unmarked) [XVIII-14, 4-(4-(3-(4-(2-Chloropropionamido)-3-(trifluoromethyl)phenyl)ureido)phenoxy)-N-methylpicolinamide], the IC50 was determined as 6.94 nM at KDR (setting [3]), 1.54 nM at PDGFRA (setting [5]) and 107 nM on FLT3 (setting [4]).
